# Source: publication PMC9501983, “Transport and Permeation Properties of Dapivirine: Understanding Potential Drug-Drug Interactions” (Pharmaceutics, 2022)
# Experiments:
# ENT1 = target: T1, ENT1 (Homo sapiens, UniProt Q99808); assay: Cellular uptake in HEK293 ENT1 and EV cells; type: in vitro ADME
# T1 construct: host or cells: HEK293
# T1 sequence (Q99808 1-456): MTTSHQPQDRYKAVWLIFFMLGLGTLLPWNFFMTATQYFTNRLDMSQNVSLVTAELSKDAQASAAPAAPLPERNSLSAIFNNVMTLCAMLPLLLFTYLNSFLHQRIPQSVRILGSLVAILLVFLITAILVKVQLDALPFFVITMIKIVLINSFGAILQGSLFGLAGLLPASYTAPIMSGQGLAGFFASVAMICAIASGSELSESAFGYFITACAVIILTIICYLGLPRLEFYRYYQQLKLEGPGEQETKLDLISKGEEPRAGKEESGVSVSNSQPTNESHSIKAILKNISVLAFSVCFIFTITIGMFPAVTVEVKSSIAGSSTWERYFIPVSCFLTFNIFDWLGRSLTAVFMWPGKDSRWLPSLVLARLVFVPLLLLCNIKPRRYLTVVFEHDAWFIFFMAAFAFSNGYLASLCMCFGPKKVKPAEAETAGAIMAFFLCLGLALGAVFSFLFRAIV
# Method: HEK293 ENT1 and HEK293 EV cells were seeded at a density of 5 x 10^4 cells per well in 24-well plates and cultured for 4 days. Before the uptake assay, cells were starved in serum-free minimum essential medium at 37 °C for 3 h to activate the ENT1 transporter. The assays were performed in Krebs-Ringer buffer with pH 7.4 supplemented with 25 mM sodium bicarbonate and 1.2 mM calcium chloride dihydrate. […] 200 nM nitrobenzylthioinosine was also used as the positive control for ENT1 inhibition.
# Starved cells were first incubated with respective inhibitor solution or blank Krebs-Ringer buffer for 30 min at 37 °C. […] To terminate the assay, ice-cold Dulbecco’s phosphate-buffered saline was added to cells. Cells were then washed twice with ice-cold Dulbecco’s phosphate-buffered saline and lysed with 1% SDS at room temperature for 20 min. […] The drug uptake was normalized against protein content. Changes in drug uptake between groups were calculated using the mean uptake values of individual groups.
# [1] = parameters: method as in PMID 26034880; settings: DPV ring clinical study (IPM 026); cited from earlier work
# MRP1 = MRP1 (Homo sapiens, UniProt P33527); assay: ATPase assay (ADP-Glo Max) in MRP1 vesicles; type: biochemical; parameters: purchased Thermo Fisher Scientific; settings: DPV 20 μM; N-ethylmaleimide-S-glutathione 10 mM; 60 min, 37 °C
# Chain of MRP1 (P33527 whole entry): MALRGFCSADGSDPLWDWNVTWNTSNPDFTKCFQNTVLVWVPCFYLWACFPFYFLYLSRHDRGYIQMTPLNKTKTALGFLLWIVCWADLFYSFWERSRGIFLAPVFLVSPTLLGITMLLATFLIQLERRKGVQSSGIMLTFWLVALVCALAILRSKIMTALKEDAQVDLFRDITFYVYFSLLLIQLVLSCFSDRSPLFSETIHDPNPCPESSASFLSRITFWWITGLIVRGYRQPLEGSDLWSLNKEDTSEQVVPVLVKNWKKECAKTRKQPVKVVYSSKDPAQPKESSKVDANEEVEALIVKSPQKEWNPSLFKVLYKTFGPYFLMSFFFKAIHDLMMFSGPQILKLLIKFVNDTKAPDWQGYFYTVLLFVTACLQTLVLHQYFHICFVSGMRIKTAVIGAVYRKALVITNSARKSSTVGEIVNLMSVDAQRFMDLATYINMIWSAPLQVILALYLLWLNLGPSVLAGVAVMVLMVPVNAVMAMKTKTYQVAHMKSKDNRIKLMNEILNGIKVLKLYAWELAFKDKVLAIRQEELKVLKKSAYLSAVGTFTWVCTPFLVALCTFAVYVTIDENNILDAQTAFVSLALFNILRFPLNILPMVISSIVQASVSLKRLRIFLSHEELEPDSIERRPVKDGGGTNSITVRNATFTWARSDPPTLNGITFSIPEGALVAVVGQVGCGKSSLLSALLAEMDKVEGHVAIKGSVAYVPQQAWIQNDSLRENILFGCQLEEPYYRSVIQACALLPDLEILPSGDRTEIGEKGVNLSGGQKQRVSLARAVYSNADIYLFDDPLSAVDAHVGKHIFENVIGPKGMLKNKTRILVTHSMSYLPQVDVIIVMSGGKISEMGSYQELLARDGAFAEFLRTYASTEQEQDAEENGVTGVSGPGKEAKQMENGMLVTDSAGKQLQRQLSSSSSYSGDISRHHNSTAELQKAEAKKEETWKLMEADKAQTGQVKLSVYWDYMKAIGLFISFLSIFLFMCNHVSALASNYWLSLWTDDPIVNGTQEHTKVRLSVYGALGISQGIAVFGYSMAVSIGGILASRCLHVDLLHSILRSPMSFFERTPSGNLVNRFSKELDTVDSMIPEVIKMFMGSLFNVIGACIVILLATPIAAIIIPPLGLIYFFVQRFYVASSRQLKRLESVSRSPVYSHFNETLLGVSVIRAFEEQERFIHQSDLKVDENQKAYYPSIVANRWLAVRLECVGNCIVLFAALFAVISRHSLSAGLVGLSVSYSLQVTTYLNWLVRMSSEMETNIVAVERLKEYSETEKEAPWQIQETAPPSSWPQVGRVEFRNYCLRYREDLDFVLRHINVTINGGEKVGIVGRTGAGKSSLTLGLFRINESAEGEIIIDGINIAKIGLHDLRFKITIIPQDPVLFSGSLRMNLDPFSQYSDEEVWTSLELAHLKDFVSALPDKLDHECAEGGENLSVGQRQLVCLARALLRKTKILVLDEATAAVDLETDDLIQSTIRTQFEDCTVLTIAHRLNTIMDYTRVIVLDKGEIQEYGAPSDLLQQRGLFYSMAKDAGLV
# Method: (§1) ATPase activity of MRP1 or MRP4 in transporter overexpressing membrane vesicles (10 μg of protein per assay) was measured by the ADP-Glo Max assay according to manufacturer’s protocol. The assay quantified the amount of ADP produced by the membrane vesicles over 60 min at 37 °C in the ATPase assay buffer (50 mM Tris-MOPS, 50 mM potassium chloride, 5 mM sodium azide, 2 mM dithiothreitol, 2 mM glutathione, 0.1 mM EGTA-Tris, and 10 mM magnesium chloride at pH 7.0). DPV was tested at 20 μM and compared to the baseline ATPase activity. A known MRP1 substrate, N-ethylmaleimide-S-glutathione (prepared by mixing N-ethylmaleimide and glutathione at a 1:1 molar ratio), at 10 mM and a known MRP4 substrate, prostaglandin E2, at 20 μM were used as positive controls. The reaction was initiated with 5 mM ATP and quenched with the ADP-Glo detection buffer. The amount of ADP produced was quantified by recording luminescence on a SpectraMax M3 plate reader (Molecular Devices, San Jose, CA, USA).
# MRP4 = target: T2, MRP4 (Homo sapiens, UniProt O15439); assay: ATPase assay (ADP-Glo Max) in MRP4 vesicles; type: biochemical; parameters: purchased Thermo Fisher Scientific; settings: DPV 20 μM; prostaglandin E2 20 μM; 60 min, 37 °C
# T2 sequence (O15439 1-1325): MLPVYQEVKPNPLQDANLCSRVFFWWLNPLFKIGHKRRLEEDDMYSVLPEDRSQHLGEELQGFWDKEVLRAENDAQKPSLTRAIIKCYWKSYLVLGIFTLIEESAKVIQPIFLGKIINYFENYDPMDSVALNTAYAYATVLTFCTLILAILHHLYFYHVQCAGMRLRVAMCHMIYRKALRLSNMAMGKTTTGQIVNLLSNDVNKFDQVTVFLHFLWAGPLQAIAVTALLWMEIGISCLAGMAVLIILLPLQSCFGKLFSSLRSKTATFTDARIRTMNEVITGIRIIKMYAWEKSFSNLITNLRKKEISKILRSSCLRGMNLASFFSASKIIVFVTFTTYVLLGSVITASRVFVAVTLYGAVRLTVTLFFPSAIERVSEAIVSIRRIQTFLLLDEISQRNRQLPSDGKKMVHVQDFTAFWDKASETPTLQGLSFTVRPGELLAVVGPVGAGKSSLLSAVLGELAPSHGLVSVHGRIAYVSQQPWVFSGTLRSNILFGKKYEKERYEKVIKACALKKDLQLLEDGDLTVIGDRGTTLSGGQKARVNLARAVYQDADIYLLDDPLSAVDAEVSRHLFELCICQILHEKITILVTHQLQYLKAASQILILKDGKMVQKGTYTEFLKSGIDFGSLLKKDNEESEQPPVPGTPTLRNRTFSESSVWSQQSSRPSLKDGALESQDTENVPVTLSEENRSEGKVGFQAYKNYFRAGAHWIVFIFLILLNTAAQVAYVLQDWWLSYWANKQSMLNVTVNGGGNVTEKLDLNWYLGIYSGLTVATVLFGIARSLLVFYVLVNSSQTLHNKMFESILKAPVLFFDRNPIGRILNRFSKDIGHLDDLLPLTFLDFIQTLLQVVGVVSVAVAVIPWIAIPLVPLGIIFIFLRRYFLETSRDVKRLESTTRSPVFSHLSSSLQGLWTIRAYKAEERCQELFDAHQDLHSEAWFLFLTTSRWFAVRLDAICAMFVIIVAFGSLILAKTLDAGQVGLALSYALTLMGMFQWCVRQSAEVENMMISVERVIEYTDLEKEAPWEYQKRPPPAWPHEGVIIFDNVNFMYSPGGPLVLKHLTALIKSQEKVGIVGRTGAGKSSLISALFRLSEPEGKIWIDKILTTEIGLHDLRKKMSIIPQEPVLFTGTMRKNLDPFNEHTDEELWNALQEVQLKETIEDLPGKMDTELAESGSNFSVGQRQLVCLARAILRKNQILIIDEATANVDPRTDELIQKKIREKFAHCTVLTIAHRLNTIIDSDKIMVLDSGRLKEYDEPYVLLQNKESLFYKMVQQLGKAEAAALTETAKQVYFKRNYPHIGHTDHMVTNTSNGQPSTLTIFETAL
# Method: as §1
smiles,measurement,setting,value
"Cc1cc(C)c(Nc2ccnc(Nc3ccc(C#N)cc3)n2)c(C)c1 [DPV, dapivirine]","Cellular uptake of thymidine in HEK293 ENT1 cells, reduced to % of control","ENT1; 5 nM thymidine, nitrobenzylthioinosine 200 nM, DPV 5 μM",no significant impact
same,Cellular uptake of DPV in HEK293 ENT1 cells compared with HEK293 EV cells,"ENT1; 0.5 μM DPV, 10 min, 37 °C",similar
same,Substrate status for ENT1,ENT1; cellular system,not a substrate
same,DPV tissue concentration,[1],1.8 µM
same,"ATPase activity in MRP1 vesicles, % of baseline",MRP1,no significant stimulation
same,"ATPase activity in MRP4 vesicles, % of baseline",MRP4,no significant stimulation
